Source: PubChem BioAssay AID2060493 (Molecular Pharmacology Branch, DTP, NCI, 2025)

Tested on: 616215-338-R-J1-PDC tumor spheroids, viability
Assay: Anticancer human tumor 616215-338-R-J1-PDC patient-derived colon adenocarcinoma cell line growth inhibition [GQUAD]
Conditions: spheroids with HUVEC and MSC; for IC50: curve of first compound; for viability, T/C: stronger effect = lower value; active = viability on the fitted dose curve at most 10% of control; inactive = the rest
How it was run: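 Tumor cells were grown as complex spheroids with HUVEC endothelial cells and mesenchymal stem cells as stroma. G-quadruplex stabilizers were combined with targeted agents over half-log dilutions from near the clinical Cmax, or from 10 microM.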

[1] = second compound 0.0316 µM, first compound 0.0316 µM
[2] = second compound 0.0316 µM, first compound 0.1 µM
[3] = second compound 0.0316 µM, first compound 0.316 µM
[4] = second compound 0.0316 µM, first compound 1 µM
[5] = second compound 0.0316 µM, first compound 3.16 µM
[6] = second compound 0.0316 µM, first compound 10 µM
[7] = second compound 0.1 µM, first compound 0.0316 µM
[8] = second compound 0.1 µM, first compound 0.1 µM
[9] = second compound 0.1 µM, first compound 0.316 µM
[10] = second compound 0.1 µM, first compound 1 µM
[11] = second compound 0.1 µM, first compound 3.16 µM
[12] = second compound 0.1 µM, first compound 10 µM
[13] = second compound 0.316 µM, first compound 0.0316 µM
[14] = second compound 0.316 µM, first compound 0.1 µM
[15] = second compound 0.316 µM, first compound 0.316 µM
[16] = second compound 0.316 µM, first compound 1 µM
[17] = second compound 0.316 µM, first compound 3.16 µM
[18] = second compound 0.316 µM, first compound 10 µM
[19] = second compound 1 µM, first compound 0.0316 µM
[20] = second compound 1 µM, first compound 0.1 µM
[21] = second compound 1 µM, first compound 0.316 µM
[22] = second compound 1 µM, first compound 1 µM
[23] = second compound 1 µM, first compound 3.16 µM
[24] = second compound 1 µM, first compound 10 µM
[25] = second compound 3.16 µM, first compound 0.0316 µM
[26] = second compound 3.16 µM, first compound 0.1 µM
[27] = second compound 3.16 µM, first compound 0.316 µM
[28] = second compound 3.16 µM, first compound 1 µM
[29] = second compound 3.16 µM, first compound 3.16 µM
[30] = second compound 3.16 µM, first compound 10 µM
[31] = second compound 10 µM, first compound 0.0316 µM
[32] = second compound 10 µM, first compound 0.1 µM
[33] = second compound 10 µM, first compound 0.316 µM
[34] = second compound 10 µM, first compound 1 µM
[35] = second compound 10 µM, first compound 3.16 µM
[36] = second compound 10 µM, first compound 10 µM
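Also: spheroids exposed to agents for 7 days before readout.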
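For viability, T/C in this document: percent viability relative to DMSO vehicle control wells taken as 100%.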

Nc1ccn(C2OC(CO)C(O)C2(F)F)c(=O)n1 (stereo unspecified) + Cc1cnc(CNC(=O)c2c(=O)c3ccc(N4CCCN(C)CC4)nc3n3c2sc2ccccc23)cn1
< 0.0316 µM: IC50 (second compound 0.0316 µM) | IC50 (second compound 0.316 µM) | IC50 (second compound 1 µM) | IC50 (second compound 3.16 µM) | IC50 (second compound 10 µM)
0.109 µM: IC50 (second compound 0.1 µM)
inactive: viability, T/C [1] 35.4% | viability, T/C [2] 35.6% | viability, T/C [3] 16.7% | viability, T/C [4] 14.6% | viability, T/C [5] 17.8% | viability, T/C [6] 14.1% | viability, T/C [7] 48.2% | viability, T/C [8] 56.5% | viability, T/C [9] 20.4% | viability, T/C [10] 16.5% | viability, T/C [11] 19.9% | viability, T/C [12] 14.9% | viability, T/C [13] 45.8% | viability, T/C [14] 26.8% | viability, T/C [15] 17.7% | viability, T/C [16] 20.3% | viability, T/C [17] 15.1% | viability, T/C [18] 17% | viability, T/C [19] 32.5% | viability, T/C [20] 30.7% | viability, T/C [21] 24.1% | viability, T/C [22] 28.2% | viability, T/C [23] 18.3% | viability, T/C [24] 18.4% | viability, T/C [25] 28.4% | viability, T/C [26] 41.8% | viability, T/C [27] 24% | viability, T/C [28] 20.4% | viability, T/C [29] 16.4% | viability, T/C [30] 23.5% | viability, T/C [31] 28.4% | viability, T/C [32] 28.8% | viability, T/C [33] 22.4% | viability, T/C [34] 21% | viability, T/C [35] 20% | viability, T/C [36] 18.5%

Nc1ccn(C2OC(CO)C(O)C2(F)F)c(=O)n1 (stereo unspecified) + CN(C)c1ccc(Nc2c3ccc(NC(=O)CCN4CCCC4)cc3nc3cc(NC(=O)CCN4CCCC4)ccc23)cc1
inactive: viability, T/C [1] 39.4% | viability, T/C [2] 18.3% | viability, T/C [3] 11.6% | viability, T/C [4] 9.94% | viability, T/C [5] 10.2% | viability, T/C [6] 11.1% | viability, T/C [7] 39.2% | viability, T/C [8] 14.7% | viability, T/C [9] 12% | viability, T/C [10] 9.37% | viability, T/C [13] 43.8% | viability, T/C [14] 20.2% | viability, T/C [15] 11.3% | viability, T/C [19] 34.6% | viability, T/C [20] 19.2% | viability, T/C [21] 9.69% | viability, T/C [22] 9.64% | viability, T/C [23] 11.7% | viability, T/C [24] 14.1% | viability, T/C [25] 45.3% | viability, T/C [26] 26% | viability, T/C [27] 12.3% | viability, T/C [31] 30.2% | viability, T/C [32] 19.6% | viability, T/C [33] 7.93%
< 0.0316 µM: IC50 (second compound 0.0316 µM) | IC50 (second compound 0.1 µM) | IC50 (second compound 0.316 µM) | IC50 (second compound 1 µM) | IC50 (second compound 3.16 µM) | IC50 (second compound 10 µM)
active: viability, T/C [11] 10.9% | viability, T/C [12] 8.91% | viability, T/C [16] 7.36% | viability, T/C [17] 8.69% | viability, T/C [18] 10.9% | viability, T/C [28] 8.37% | viability, T/C [29] 11.2% | viability, T/C [30] 9.17% | viability, T/C [34] 6.14% | viability, T/C [35] 8.89% | viability, T/C [36] 8.2%

C#Cc1c(F)ccc2cc(O)cc(-c3ncc4c(N5CC6CCC(C5)N6)nc(OCC56CCCN5CC(F)C6)nc4c3F)c12 (stereo unspecified) + Cc1cnc(CNC(=O)c2c(=O)c3ccc(N4CCCN(C)CC4)nc3n3c2sc2ccccc23)cn1
0.0436 µM: IC50 (second compound 3.16 µM)
< 0.0316 µM: IC50 (second compound 0.316 µM) | IC50 (second compound 1 µM) | IC50 (second compound 10 µM)
inactive: viability, T/C [1] 98.8% | viability, T/C [2] 88.4% | viability, T/C [3] 103% | viability, T/C [4] 67.6% | viability, T/C [5] 63.8% | viability, T/C [6] 27.8% | viability, T/C [7] 64.3% | viability, T/C [8] 64.2% | viability, T/C [9] 51.9% | viability, T/C [10] 40.2% | viability, T/C [11] 28.7% | viability, T/C [12] 22.1% | viability, T/C [13] 38.8% | viability, T/C [14] 40.5% | viability, T/C [15] 48.3% | viability, T/C [16] 40.8% | viability, T/C [17] 39.2% | viability, T/C [18] 19% | viability, T/C [19] 34.7% | viability, T/C [20] 27.1% | viability, T/C [21] 40.9% | viability, T/C [22] 19.8% | viability, T/C [23] 20.8% | viability, T/C [24] 20.4% | viability, T/C [25] 58.3% | viability, T/C [26] 27.7% | viability, T/C [27] 24.1% | viability, T/C [28] 15.6% | viability, T/C [29] 18.8% | viability, T/C [30] 7.2% | viability, T/C [31] 21% | viability, T/C [32] 18.5% | viability, T/C [33] 22.3% | viability, T/C [34] 16.8% | viability, T/C [35] 14.8% | viability, T/C [36] 14.6%
4.51 µM: IC50 (second compound 0.0316 µM)
0.422 µM: IC50 (second compound 0.1 µM)
